Test results reported in patent publication US20260265233A1, “BENZOTHIOPHENE DERIVATIVES AS RXFP1 AGONISTS” (BRISTOL-MYERS SQUIBB COMPANY, priority 2021, published 2026).

Biological target: T1, human RXFP1 (Homo sapiens, UniProt Q9HBX9)
T1 construct: expressed in transfected cells
T1 sequence (Q9HBX9 1-757): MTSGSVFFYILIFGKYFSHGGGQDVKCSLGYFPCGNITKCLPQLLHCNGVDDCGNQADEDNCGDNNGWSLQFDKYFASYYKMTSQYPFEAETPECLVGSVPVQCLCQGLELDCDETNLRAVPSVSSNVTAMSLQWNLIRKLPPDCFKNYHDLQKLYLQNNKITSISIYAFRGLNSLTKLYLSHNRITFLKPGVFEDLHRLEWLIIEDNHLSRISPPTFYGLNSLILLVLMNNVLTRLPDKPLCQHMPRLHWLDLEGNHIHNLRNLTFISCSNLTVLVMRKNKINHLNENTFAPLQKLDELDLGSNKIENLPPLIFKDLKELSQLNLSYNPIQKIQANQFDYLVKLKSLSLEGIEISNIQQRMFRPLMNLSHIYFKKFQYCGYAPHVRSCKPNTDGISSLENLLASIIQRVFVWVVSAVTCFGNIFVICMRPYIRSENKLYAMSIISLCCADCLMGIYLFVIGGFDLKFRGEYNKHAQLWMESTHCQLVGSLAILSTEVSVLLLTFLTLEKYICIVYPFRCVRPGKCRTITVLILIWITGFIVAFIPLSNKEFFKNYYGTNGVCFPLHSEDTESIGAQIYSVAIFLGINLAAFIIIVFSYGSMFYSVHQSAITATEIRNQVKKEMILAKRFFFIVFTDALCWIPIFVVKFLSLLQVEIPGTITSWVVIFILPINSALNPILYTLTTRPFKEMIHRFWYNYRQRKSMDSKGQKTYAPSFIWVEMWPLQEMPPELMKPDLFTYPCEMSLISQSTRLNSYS
Experiment: hRXFP1 HEK293 cAMP assay (HTRF)
Format: cell-based
Details: HEK293 cells stably expressing human RXFP1; 30 min at rt; intracellular cAMP by HTRF
How it was run: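 HEK293 cells stably expressing human RXFP1 treated 30 min at rt with compound (0.010 nM to 50 μM, 2% DMSO) in HBSS/HEPES buffer with 0.5 mM IBMX. Intracellular cAMP measured by HTRF (665/590 nm ratio) against a cAMP standard curve; potency fitted by 4-parameter logistic.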

Row | SMILES | EC50 [nM]
1 | COc1ccc(N2CCC[C@@H](NC(=O)CN(C)C)C2)cc1C(=O)Nc1c(C(=O)Nc2ccc(F)c(C(F)(F)F)c2)sc2cc(C(F)(F)F)ccc12 [Example 209, (R)-3-(5-(3-(2-(dimethylamino)acetamido)piperidin-1-yl)-2-methoxy-benzamido)-N-(4-fluoro-3-(trifluoromethyl)phenyl)-6-(trifluoromethyl) benzo[b] thiophene-2-carboxamide] | 1480
2 | COc1ccc(C2CC3CCC(C2)N3CCS(C)(=O)=O)cc1C(=O)Nc1c(C(=O)Nc2ccc(F)c(C(F)(F)F)c2)sc2cc(C(F)(F)F)ccc12 (centres unmarked) [Example 193, N-(4-fluoro-3-(trifluoromethyl)phenyl)-3-(2-methoxy-5-(8-(2-(methylsulfonyl)ethyl)-8-azabicyclo[3.2.1]octan-3-yl)benzamido)-6-(trifluoromethyl) benzo[b] thiophene-2-carboxamide] | 300
3 | COc1ccc(C2CCCC(O)C2)cc1C(=O)Nc1c(C(=O)Nc2ccc(F)c(C(F)(F)F)c2)sc2cc(C(F)(F)F)ccc12 (single isomer, unassigned) [Example 32, N-(4-fluoro-3-(trifluoromethyl)phenyl)-3-(5-(3-hydroxycyclohexyl)-2-methoxybenzamido)-6-(trifluoromethyl)benzo[b]thiophene-2-carboxamide] | 718
4 | COc1cc(F)c(C(=O)N2CCC(O)CC2)cc1C(=O)Nc1c(C(=O)Nc2ccc(F)c(C(F)(F)F)c2)sc2cc(C(F)(F)F)ccc12 [Example 184, N-(4-fluoro-3-(trifluoromethyl)phenyl)-3-(4-fluoro-5-(4-hydroxypiperidine-1-carbonyl)-2-methoxy-benzamido)-6-(trifluoromethyl) benzo[b] thiophene-2-carboxamide] | 349
5 | COc1ccc(-c2cc(C(=O)O)ccc2F)cc1C(=O)Nc1c(C(=O)Nc2ccc(F)c(C(F)(F)F)c2)sc2ccc(C(F)(F)F)cc12 [Example 214, 6-fluoro-3′-((2-((4-fluoro-3-(trifluoromethyl)phenyl)carbamoyl)-5-(trifluoromethyl)benzo[b]thiophen-3-yl)carbamoyl)-4′-methoxy-[1,1′-biphenyl]-3-carboxylic acid] | 2150
6 | COCCC(=O)N1CCC(c2ccc(OC)c(C(=O)Nc3c(C(=O)Nc4ccc(F)c(C(F)(F)F)c4)sc4cc(C(F)(F)F)ccc34)c2)C1 (centres unmarked) [Example 143, N-(4-fluoro-3-(trifluoromethyl)phenyl)-3-(2-methoxy-5-(1-(3-methoxypropanoyl)pyrrolidin-3-yl)benzamido)-6-(trifluoromethyl) benzo[b] thiophene-2-carboxamide] | 1540
7 | COc1ccc(C2=NC(C(=O)N3CC(C)(O)C3)CO2)cc1C(=O)Nc1c(C(=O)Nc2ccc(F)c(C(F)(F)F)c2)sc2cc(C(F)(F)F)ccc12 (centres unmarked) [Example 280, N-[4-fluoro-3-(trifluoromethyl)phenyl]-3-{5-[4-(3-hydroxy-3-methylazetidine-1-carbonyl)-4,5-dihydro-1,3-oxazol-2-yl]-2-methoxy-benzamido}-6-(trifluoromethyl)-1-benzothiophene-2-carboxamide] | 44.1
8 | COc1ccc(C(=O)N2CCOCC2)cc1C(=O)Nc1c(C(=O)Nc2ccc(F)c(C(F)(F)F)c2)sc2cc(C(F)(F)F)ccc12 [Example 221, N-(4-fluoro-3-(trifluoromethyl)phenyl)-3-(2-methoxy-5-(morpholine-4-carbonyl)benzamido)-6-(trifluoromethyl) benzo[b] thiophene-2-carboxamide] | 1100
9 | COc1ccc(C2CCCN(C3COC3)C2)cc1C(=O)Nc1c(C(=O)Nc2ccc(F)c(C(F)(F)F)c2)sc2cc(C(F)(F)F)ccc12 (centres unmarked) [Example 97, N-(4-fluoro-3-(trifluoromethyl)phenyl)-3-(2-methoxy-5-(1-(oxetan-3-yl)piperidin-3-yl)benzamido)-6-(trifluoromethyl) benzo[b] thiophene-2-carboxamide] | 607
10 | COc1ccc(C(=O)N2CC(C)(C)C2)cc1C(=O)Nc1c(C(=O)Nc2ccc(F)c(C(F)(F)F)c2)sc2cc(Cl)ncc12 [Example 240, 6-chloro-3-(5-(3,3-dimethyl-azetidine-1-carbonyl)-2-methoxy-benzamido)-N-(4-fluoro-3-(trifluoromethyl)phenyl)thieno [3,2-c]pyridine-2-carboxamide] | 3300
11 | COc1ccc(C2CCC(NCC(=O)O)CC2)cc1C(=O)Nc1c(C(=O)Nc2ccc(F)c(C(F)(F)F)c2)sc2cc(C(F)(F)F)ccc12 (single isomer, unassigned) [Example 211, (4-(3-((2-((4-fluoro-3-(trifluoromethyl)phenyl)carbamoyl)-6-(trifluoromethyl)benzo[b]thiophen-3-yl)carbamoyl)-4-methoxyphenyl)cyclohexyl) glycine] | 2770
12 | COc1ccc(C2CCCN(C(=O)C(=O)O)C2)cc1C(=O)Nc1c(C(=O)Nc2ccc(F)c(C(F)(F)F)c2)sc2cc(C(F)(F)F)ccc12 (centres unmarked) [Example 81, 2-(3-(3-((2-((4-fluoro-3-(trifluoromethyl)phenyl)carbamoyl)-6-(trifluoromethyl)benzo[b]thiophen-3-yl)carbamoyl)-4-methoxyphenyl)piperidin-1-yl)-2-oxoacetic acid] | 203

More lines, now with the values ahead:

Row | EC50 [nM] | SMILES
13 | 1060 | COc1ccc(S(=O)(=O)N2CCC(C(C)(C)O)CC2)cc1C(=O)Nc1c(C(=O)Nc2ccc(F)c(C(F)(F)F)c2)sc2cc(C(F)(F)F)ccc12 [Example 225, N-(4-fluoro-3-(trifluoromethyl)phenyl)-3-(5-((4-(2-hydroxypropan-2-yl)piperidin-1-yl)sulfonyl)-2-methoxy-benzamido)-6-(trifluoromethyl) benzo[b] thiophene-2-carboxamide]
14 | 613 | COc1ccc(C2CCN(C(=O)CO)C2)cc1C(=O)Nc1c(C(=O)Nc2ccc(F)c(C(F)(F)F)c2)sc2cc(C(F)(F)F)ccc12 (centres unmarked) [Example 152, N-(4-fluoro-3-(trifluoromethyl)phenyl)-3-(5-(1-(2-hydroxyacetyl)pyrrolidin-3-yl)-2-methoxy-benzamido)-6-(trifluoromethyl) benzo[b] thiophene-2-carboxamide]
15 | 208 | COc1ccc(C2CCN(C(=O)C(C)(C)O)C2)cc1C(=O)Nc1c(C(=O)Nc2ccc(F)c(C(F)(F)F)c2)sc2cc(C(F)(F)F)ccc12 (centres unmarked) [Example 151, N-(4-fluoro-3-(trifluoromethyl)phenyl)-3-(5-(1-(2-hydroxy-2-methylpropanoyl)pyrrolidin-3-yl)-2-methoxy-benzamido)-6-(trifluoromethyl) benzo[b] thiophene-2-carboxamide]
16 | 531 | COc1ccc(C2=NOC3CNCC23)cc1C(=O)Nc1c(C(=O)Nc2ccc(F)c(C(F)(F)F)c2)sc2cc(C(F)(F)F)ccc12 (centres unmarked) [Example 247, N-(4-fluoro-3-(trifluoromethyl)phenyl)-3-(2-methoxy-5-(3a,5,6,6a-tetrahydro-4H-pyrrolo[3,4-d]isoxazol-3-yl)benzamido)-6-(trifluoromethyl) benzo[b] thiophene-2-carboxamide]
17 | 662 | COc1ccc(N2CCCC(CC(=O)O)C2)cc1C(=O)Nc1c(C(=O)Nc2ccc(F)c(C(F)(F)F)c2)sc2cc(C(F)(F)F)ccc12 (single isomer, unassigned) [Example 65, 2-(1-(3-((2-((4-fluoro-3-(trifluoromethyl)phenyl)carbamoyl)-6-(trifluoromethyl)benzo[b]thiophen-3-yl)carbamoyl)-4-methoxyphenyl)piperidin-3-yl)acetic acid]
18 | 544 | COc1ccc(C(=O)N2CC3(COC3)C2)cc1C(=O)Nc1c(C(=O)Nc2ccc(F)c(C(F)(F)F)c2)sc2cc(C(F)(F)F)ccc12 [Example 181, N-(4-fluoro-3-(trifluoromethyl)phenyl)-3-(2-methoxy-5-(2-oxa-6-azaspiro[3.3]heptane-6-carbonyl)benzamido)-6-(trifluoromethyl) benzo[b] thiophene-2-carboxamide]
19 | 1040 | COc1ccc(C2CCCN(CC(N)=O)CC2)cc1C(=O)Nc1c(C(=O)Nc2ccc(F)c(C(F)(F)F)c2)sc2cc(C(F)(F)F)ccc12 (single isomer, unassigned) [Example 73, 3-(5-(1-(2-amino-2-oxoethyl)azepan-4-yl)-2-methoxy-benzamido)-N-(4-fluoro-3-(trifluoromethyl)phenyl)-6-(trifluoromethyl) benzo[b] thiophene-2-carboxamide]
20 | 440 | COc1ccc(-c2cc([C@@H](C)O)on2)cc1C(=O)Nc1c(C(=O)Nc2ccc(F)c(C(F)(F)F)c2)sc2cc(C(F)(F)F)ccc12 [Example 275, (R)-N-(4-fluoro-3-(trifluoromethyl)phenyl)-3-(5-(5-(1-hydroxyethyl)isoxazol-3-yl)-2-methoxy-benzamido)-6-(trifluoromethyl) benzo[b] thiophene-2-carboxamide]
